According to paper PMC10819888, “Benzimidazole-Based Derivatives as Apoptotic Antiproliferative Agents: Design, Synthesis, Docking, and Mechanistic Studies” (Molecules, 2024):

How the values were obtained:
Experiment in all cases: NCI-60 one-dose assay
Type in all cases: cell-based
HCT-116 = conditions: Homo sapiens, HCT-116 (Colon Cancer), read-out: Cell Inhibition Percent
Description: (§1) The final compounds were submitted to the National Cancer Institute, Bethesda, USA, for screening in vitro for anti-cancer. […] compounds, 4a–j, 5, and 6, were selected according to the Development Therapeutic Program (DTP) protocol. The selected compounds were evaluated for their in vitro cytotoxic activity against a panel of sixty cancer cell lines (NCI-60 cell line panel) derived from six cell lines panel of leukemia, nine cell lines of lung cancer, six cell lines of CNS cancer, seven cell lines of colon cancer, eight cell lines of melanoma, six cell lines of ovarian cancer, eight cell lines of renal cancer, two cell lines of prostate cancer, and eight cell lines of breast cancer, representing the full nine human systems as leukemia, melanoma, and cancers of the lung, colon, brain, breast, ovary, kidney, and prostate.
(§2) The selected compounds 4a–j, 5, and 6 were tested at a single concentration of 10 µM. The screening results for the selected compounds are illustrated in Table 1.
(§3) The NCI anti-cancer screening methodology has been described in detail elsewhere (http://www.dtp.nci.nih.gov, accessed on 20 February 2021). Following the Drug Evaluation Branch protocol, National Cancer Institute, Bethesda, USA, a primary anti-cancer assay was performed on approximately 60 human tumor cell line panels derived from nine neoplastic diseases.

SNB-75 = conditions: Homo sapiens, SNB-75 (CNS cancer), read-out: Cell Inhibition Percent
Description: as §1, §2, §3

ACHN = conditions: Homo sapiens, ACHN (Renal Cancer), read-out: Cell Inhibition Percent
Description: as §1, §2, §3

T-47D = conditions: Homo sapiens, T47D, T-47D (Breast Cancer), read-out: Cell Inhibition Percent
Description: as §1, §2, §3

HCC-2998 = conditions: Homo sapiens, HCC-2998 (Colon Cancer), read-out: Cell Inhibition Percent
Description: as §1, §2, §3

SW-620 = conditions: Homo sapiens, SW-620 (Colon Cancer), read-out: Cell Inhibition Percent
Description: as §1, §2, §3

SF-539 = conditions: Homo sapiens, SF-539 (CNS cancer), read-out: Cell Inhibition Percent
Description: as §1, §2, §3

NCI-H460 = conditions: Homo sapiens, NCI-H460 (Non-Small Cell Lung Cancer), read-out: Cell Inhibition Percent
Description: as §1, §2, §3

HT29 = conditions: Homo sapiens, HT-29, HT29 (Colon Cancer), read-out: Cell Inhibition Percent
Description: as §1, §2, §3

OVCAR-4 = conditions: Homo sapiens, OVCAR-4 (ovarian cancer), read-out: Cell Inhibition Percent
Description: as §1, §2, §3

SF-268 = conditions: Homo sapiens, SF-268 (CNS cancer), read-out: Cell Inhibition Percent
Description: as §1, §2, §3

CCRF-CEM = conditions: Homo sapiens, CCRF-CEM (Leukemia), read-out: Cell Inhibition Percent
Description: as §1, §2, §3

M14 = conditions: Homo sapiens, M14 (Melanoma), read-out: Cell Inhibition Percent
Description: as §1, §2, §3

K-562 = conditions: Homo sapiens, K562, K-562 (Leukemia), read-out: Cell Inhibition Percent
Description: as §1, §2, §3

SNB-19 = conditions: Homo sapiens, SNB-19 (CNS cancer), read-out: Cell Inhibition Percent
Description: as §1, §2, §3

MDA-MB-468 = conditions: Homo sapiens, MDA-MB-468 (Breast Cancer), read-out: Cell Inhibition Percent
Description: as §1, §2, §3

NCI-H522 = conditions: Homo sapiens, NCI-H522 (Non-Small Cell Lung Cancer), read-out: Cell Inhibition Percent
Description: as §1, §2, §3

HL-60(TB) = conditions: Homo sapiens, HL-60(TB) (Leukemia), read-out: Cell Inhibition Percent
Description: as §1, §2, §3

MOLT-4 = conditions: Homo sapiens, MOLT-4 (Leukemia), read-out: Cell Inhibition Percent
Description: as §1, §2, §3

PC-3 = conditions: Homo sapiens, PC-3 (Prostate Cancer), read-out: Cell Inhibition Percent
Description: as §1, §2, §3

HS 578T = conditions: Homo sapiens, HS 578T (Breast Cancer), read-out: Cell Inhibition Percent
Description: as §1, §2, §3

A498 = conditions: Homo sapiens, A498 (Renal Cancer), read-out: Cell Inhibition Percent
Description: as §1, §2, §3

MALME-3M = conditions: Homo sapiens, MALME-3M (Melanoma), read-out: Cell Inhibition Percent
Description: as §1, §2, §3

HOP-62 = conditions: Homo sapiens, HOP-62 (Non-Small Cell Lung Cancer), read-out: Cell Inhibition Percent
Description: as §1, §2, §3

A549/ATCC = conditions: Homo sapiens, A549/ATCC (Non-Small Cell Lung Cancer), read-out: Cell Inhibition Percent
Description: as §1, §2, §3

HCT-15 = conditions: Homo sapiens, HCT-15 (Colon Cancer), read-out: Cell Inhibition Percent
Description: as §1, §2, §3

NCI-H23 = conditions: Homo sapiens, NCI-H23 (Non-Small Cell Lung Cancer), read-out: Cell Inhibition Percent
Description: as §1, §2, §3

786-0 = conditions: Homo sapiens, 786-0 (Renal Cancer), read-out: Cell Inhibition Percent
Description: as §1, §2, §3

SK-MEL-5 = conditions: Homo sapiens, SK-MEL-5 (Melanoma), read-out: Cell Inhibition Percent
Description: as §1, §2, §3

OVCAR-5 = conditions: Homo sapiens, OVCAR-5 (ovarian cancer), read-out: Cell Inhibition Percent
Description: as §1, §2, §3

RXF 393 = conditions: Homo sapiens, RXF 393 (Renal Cancer), read-out: Cell Inhibition Percent
Description: as §1, §2, §3

CCn1c(-c2ccc3[nH]c(-c4ccc(Cl)cc4)nc3c2)n[nH]c1=S [Compound 6, 4-ethyl-5-(2-(4-chlorophenyl)-1H-benzimidazol-5-yl)-2,4-dihydro-3H-1,2,4triazole-3-thione] gave an inhibition at 10 µM (HCT-116) of 0%, an inhibition at 10 µM (SNB-75) of 3.91% and an inhibition at 10 µM (ACHN) of 0%. For the same molecule, the inhibition at 10 µM (T-47D) was 0.3%, the inhibition at 10 µM (HCC-2998) was 0% and the inhibition at 10 µM (SW-620) was 0%. The inhibition at 10 µM (SF-539) was 3.69%, the inhibition at 10 µM (NCI-H460) was 0% and the inhibition at 10 µM (HT29) was 2.07%. The inhibition at 10 µM (OVCAR-4) was 0.6%, the inhibition at 10 µM (SF-268) was 1.04% and the inhibition at 10 µM (CCRF-CEM) was 0%. It also gave an inhibition at 10 µM (M14) of 0%, an inhibition at 10 µM (K-562) of 1.43% and an inhibition at 10 µM (SNB-19) of 0%. The inhibition at 10 µM (MDA-MB-468) was 0%, the inhibition at 10 µM (NCI-H522) was 1.85% and the inhibition at 10 µM (HL-60(TB)) was 0%. For the same molecule, the inhibition at 10 µM (MOLT-4) was 2.85%, the inhibition at 10 µM (PC-3) was 7.76% and the inhibition at 10 µM (HS 578T) was 1.05%. It also gave an inhibition at 10 µM (A498) of 56.9%, an inhibition at 10 µM (MALME-3M) of 2.41% and an inhibition at 10 µM (HOP-62) of 1.71%. The inhibition at 10 µM (A549/ATCC) was 0%, the inhibition at 10 µM (HCT-15) was 1.62% and the inhibition at 10 µM (NCI-H23) was 4.53%. The inhibition at 10 µM (786-0) was 0%, the inhibition at 10 µM (SK-MEL-5) was 2.04% and the inhibition at 10 µM (OVCAR-5) was 0%. It also gave an inhibition at 10 µM (RXF 393) of 13.9%.
